The test system of assay [1] is HepG2 cells. Put plainly: Biosynthesis of cholesterol and CoQ by HepG2 cells: incorporation of [3H]mevalonate, lipid extraction, HPLC with on-line detection of radioactivity. The format is cell-based, human. Particulars: for Coenzyme Q10: labeling of CoQ. How it is done:
(§1) Human hepatoblastoma (HepG2) cells (cell line derived from a human liver cancer that contains primarily CoQ with a decaprenyl side-chain available in ATCC (Cat. No. HB-8065), obtained from LGC Prochem, UK) were cultured in 10 ml DMEM medium (Invitrogen) containing 1 g glucose per 100 ml, 10% fetal bovine serum, penicillin (100 units per ml) and streptomycin ([…]). When 70% confluency was reached, the medium was changed and the compounds to be investigated added in 50-100 µl dimethylsulfoxide to give a final concentration of 2 µM or in the case of tocotrienols 5 µM. Twenty-four hours later, 0.5 mCi [^3H]mevalonate (3.25 Ci/mmol) was added and incubation continued for an additional 8 hours. When the substrate was [^3H]lanosterol (0.28 Ci/mmol) the amount added was 5 µCi. Finally, the cells were harvested by trypsinisation and stored at -20° C for later analysis.
(§2) Lipids were extracted from cells with chloroform:methanol:water (1:1:0.3), at 37°C for 1 hr with magnetic stirring (Ericsson, J., Runquist, M., Thelin, A., Andersson, M., Chojnacki, T., and Dallner, G. (1993) J Biol Chem 268(2), 832-838). The extracts thus obtained were adjusted to achieve a final chloroform:methanol:water ratio of 3:2:1 and complete phase separation then accomplished by centrifugation. The lower chloroform phase was removed and evaporated to dryness under a flow of nitrogen and the residue subsequently re-dissolved in chloroform. These solutions were placed onto a silica column (50 mg/1.5 ml; Extract-Clean, Alltech, Deerfield, IL) and thereafter eluted with 6 ml chloroform. After evaporation of the solvents, the neutral lipids were dissolved in chloroform:methanol (2:1).
(§3) For analysis of cholesterol, cholesterol metabolites, squalene, and CoQ, the samples were subjected to reversed-phase HPLC using a Supelcosil LC-18 column (3 µm, 4.0 x 75 mm) equipped with an LC-18 Supelguard (Supelco) column (Ericsson, J., Thelin, A., Chojnacki, T., and Dallner, G. (1992) J Biol Chem 267(27), 19730-19735). For separation, a stepwise gradient involving methanol:water (9:1) in pump system A and methanol:2-propanol:hexane (2:1:1) in pump system B was employed at a flow rate of 1.1 ml/min. The gradient began at 15% solvent B, with increases to 47% after 8 min, 67% after 16 min and 100% after 24 min. The lipids in the eluent were monitored at 210 nm and 275 nm with a UV detector and labeling of radioactive products was measured with on-line detector of radioactivity. Ergosterol and CoQ6 were used as internal standards.

The subject of assay [2] is HepG2 cells. The description is as above. The format is cell-based. Particulars: Homo sapiens, [3H]mevalonate incorporation into cholesterol, read-out: inhibition (reduction) of cholesterol synthesis.
Assay [3] has as its system HepG2 cells. Put plainly: Biosynthesis of cholesterol from [3H]lanosterol in the presence of inhibitors. The format is cell-based, human. The settings on record: for Cholesterol: 2 µM tetraepoxysolanesol or ketoconazole or 0.2 µM RO 48-8071, 24 hrs, then [3H]lanosterol 8 hrs, means ± SE of 3 experiments; for cholesterol synthesis with [3H]lanosterol as precursor: result in words. The method, then: as §1, §2, §3

[4] abbreviates: 2 µM, 24 hours, then [3H]mevalonate for 8 hours, means ± SD (n = 4).
[5] abbreviates: 2 µM, 24 hours, then [3H]mevalonate for 8 hours, labeling of cholesterol, means ± SD (n = 4).
Where [6] appears, read: 2 µM tetraepoxysolanesol or ketoconazole or 0.2 µM RO 48-8071, 24 hrs, then [3H]mevalonate 8 hrs, means ± SE.
[7] abbreviates: 2 µM tetraepoxysolanesol or ketoconazole or 0.2 µM RO 48-8071, 24 hrs, then [3H]mevalonate 8 hrs, means ± SE, n.d. = not detectable.

Solanesol: the “Coenzyme Q10” value in the assay on HepG2 cells [1] (setting [4]) is given as 138 ± 14 % of control. Also, in the assay with HepG2 cells [1] (setting [5]), the Cholesterol is 3 ± 1 % of control.
As a reminder, the inhibition is how much of the control response was suppressed. Consider `CC(C)=CCC/C(C)=C/CC/C(C)=C/CC/C=C(\C)CC/C=C(\C)CCC=C(C)C` [Squalene], for which the “Coenzyme Q10” value with HepG2 cells [1] (setting [4]) is 111 ± 8 % of control. Besides, in the assay on HepG2 cells [1] (setting [5]), the Cholesterol is on record as 30 ± 5 % of control. In the assay on HepG2 cells [2], the inhibition at 2 µM was 70%.
With `C=CCN(C)CCCCCCOc1ccc(C(=O)c2ccc(Br)cc2)c(F)c1` [RO 48-8071, reference compound], in the assay with HepG2 cells [1] (setting [6]), the CQ10 amounted to 2.1 ± 0.2 cpm/pg protein. Also, in the assay with HepG2 cells [1] (setting [7]), the “2,3-Oxido squalene” value worked out at 91 ± 10 cpm/pg protein and the “2,3:22,23-Dioxidosqualene” value is 108 ± 22 cpm/pg protein. Also, in the assay with HepG2 cells [3], the Cholesterol turned out to be 10.1 ± 1.2 cpm/pg protein and the “cholesterol synthesis with [3H]lanosterol as precursor” value was “neither tetraepoxysolanesol or RO 48-8071 inhibited”.
In the case of `CC(=O)N1CCN(c2ccc(OCC3COC(Cn4ccnc4)(c4ccc(Cl)cc4Cl)O3)cc2)CC1` (centres unmarked) [Ketoconazole, reference compound], the CQ10 in the assay with HepG2 cells [1] (setting [6]) was 2.4 ± 0.3 cpm/pg protein. In addition, in the assay on HepG2 cells [1] (setting [7]), the Cholesterol is 25 ± 4 cpm/pg protein and the Lanosterol was determined as 58 ± 16 cpm/pg protein. For the same molecule, in the assay with HepG2 cells [3], the Cholesterol came to 1.3 ± 0.3 cpm/pg protein and the “cholesterol synthesis with [3H]lanosterol as precursor” value is given as “inhibited”.
On to `CC(C)=CCC/C(C)=C/CC/C(C)=C/CO` [Farnesol], for which, in the assay with HepG2 cells [1] (setting [4]), the “Coenzyme Q10” value was 100 ± 4 % of control. In the assay with HepG2 cells [1] (setting [5]), the Cholesterol is 101 ± 3 % of control.
The matching figures for `CC(=O)OC/C=C(\C)CC/C=C(\C)CC/C=C(\C)CCC=C(C)C` [Geranylgeranyl-acetate]: 109 ± 12 % of control and 102 ± 4 % of control.
Take Vitamin K2: in the assay on HepG2 cells [1] (setting [4]), the “Coenzyme Q10” value is listed as 127 ± 18 % of control. Also, the Cholesterol in the assay on HepG2 cells [1] (setting [5]) is listed as 67 ± 7 % of control. For the same molecule, the “inhibition (reduction) of cholesterol synthesis” value in the assay with HepG2 cells [1] (2 µM, [3H]mevalonate incorporation into cholesterol) came to 33%. Besides, the “elevation (stimulation) of CoQ synthesis” value with HepG2 cells [1] (2 µM, [3H]mevalonate labeling of CoQ) is listed as 27%.
As to Solanesyl-acetate, in the assay on HepG2 cells [1] (setting [4]), the “Coenzyme Q10” value is 145 ± 18 % of control. Besides, the Cholesterol with HepG2 cells [1] (setting [5]) is recorded as 4 ± 2 % of control.
Consider `CC(C)=CCC/C(C)=C/CC/C(C)=C/CC/C(C)=C/CO` [Geranylgeraniol], for which the “Coenzyme Q10” value in the assay with HepG2 cells [1] (setting [4]) is given as 107 ± 11 % of control. Also, the Cholesterol in the assay on HepG2 cells [1] (setting [5]) was 102 ± 5 % of control.
The matching figures for Farnesyl-acetate: 105 ± 8 % of control and 103 ± 4 % of control.

(Values after patent EP2093222A1, “Polyisoprenoid epoxides useful for decreasing cholesterol and/or increasing coenzyme Q biosynthesis” (NEWBIOTECHNIC, S.A., priority 2008, dated 2009).)
